In this experiment the target is PAI-1 (Homo sapiens, UniProt P05121). Nature of the experiment: biochemical. Type of experiment: biochemical. How it is done: The present compounds have been tested in a PAI functional assay. In this assay, a compound is incubated with PAI-1 prior to addition to the tPA assay system. Inhibition of PAI-1 results in the production of plasmin from plasminogen. In turn, plasmin cleaves the chromogenic substrate S2251 (Kabi Vitrum) producing pNA (p-nitroaniline) which is detected spectrophotometrically at 405 nm (K. Nilsson et al, Fibrinolysis (1987) 1, 163-168).
Sequence of PAI-1 (P05121 24-402): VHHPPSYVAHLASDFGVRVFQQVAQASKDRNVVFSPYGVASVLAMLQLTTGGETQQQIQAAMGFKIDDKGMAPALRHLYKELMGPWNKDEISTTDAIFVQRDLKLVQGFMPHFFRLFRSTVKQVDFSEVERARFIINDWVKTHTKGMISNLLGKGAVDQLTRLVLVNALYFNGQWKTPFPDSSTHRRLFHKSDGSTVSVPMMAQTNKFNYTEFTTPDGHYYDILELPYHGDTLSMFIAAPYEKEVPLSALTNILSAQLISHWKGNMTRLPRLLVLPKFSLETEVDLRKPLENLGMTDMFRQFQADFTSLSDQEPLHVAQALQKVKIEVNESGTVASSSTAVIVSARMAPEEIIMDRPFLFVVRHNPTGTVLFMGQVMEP
The present compounds were tested in a PAI chromogenic substrate assay. In the assay (K. Nilsson, Fibrinolysis (1987) 1, 163-168) each compound was incubated with PAI-1 prior to addition to the tPA assay system. […] In turn, the plasmin cleaved the chromogenic substrate S2251 (Kabi-Vitrum) producing pNA (p-nitroaniline) which was detected spectrophotometrically at 405 nm.
The degrees of inhibition observed in the chromogenic substrate assay at various concentrations, or the IC50 values, for each compound are presented in Table 1.

[1] abbreviates: PAI chromogenic substrate assay.

Structures are written as SMILES. Where a name gives a salt, the structure may show the parent alone. Read-outs that look alike come from different tables or passages of the source.

The % Inhibition is the percentage by which the read-out fell short of the control. A word on the IC50: it is the concentration that inhibits the measured activity by half. A high value points to weaker potency in that assay. On to `COc1cc(/C=c2\[nH]c(=O)/c(=C/c3ccc(SCCN(C)C)s3)[nH]c2=O)ccc1OCc1ccc([N+](=O)[O-])cc1` [Compound 5488.HCl, (3Z,6Z)-3-(5-(2-Dimethylaminoethylthio)-2-thienyl)methylene-6-(3-methoxy-4-(4-nitrobenzyloxy)benzylidene)-2,5-piperazinedione], for which the “% Inhibition” value by setting is: (5 μm) 15%; (20 μm) 60%. Besides, the IC50 under setting [1] is 7.6 µM.

Regarding `Cc1ccc(/C=c2\[nH]c(=O)/c(=C/c3ccc(SCCN(C)C)cc3)[nH]c2=O)cc1` [Compound 5463.HCl, (3Z,6Z)-3-(4-(2-Dimethylaminoethylthio)benzylidene)-6-(4-methylbenzylidene)-2,5-piperazinedione], the “% Inhibition” value (5 μm) was 78% and the “% Inhibition” value (20 μm) stood at 80%. Moreover, under setting [1], the IC50 turned out to be 3.1 µM.

For `CN(C)CCSc1ccc(/C=c2\[nH]c(=O)/c(=C/c3cccc(OCc4ccccc4)c3)[nH]c2=O)cc1` [Compound 5486.HCl, (3Z,6Z)-3-(3-Benzyloxybenzylidene)-6-(4-(2-dimethylaminoethylthio)benzylidene)-2,5-piperazinedione], the “% Inhibition” value is reported as 4% (5 μm) and 49% (20 μm).

Turning to `CN(C)CCSc1ccc(/C=c2\[nH]c(=O)/c(=C/C3CCCCC3)[nH]c2=O)s1` [Compound 5454, (3Z,6Z)-6-Cyclohexylmethylene-3-(5-(2-dimethylaminoethylthio)-2-thienyl)methylene-2,5-piperazinedione], the “% Inhibition” value runs as follows: (5 μm) 47%; (20 μm) 75%. The same compound returned a 50% inhibitory concentration (IC50) under setting [1] of 5.5 µM.

For the compound `CN(C)CCSc1ccc(/C=c2\[nH]c(=O)/c(=C/c3ccc(N(C)C)cc3)[nH]c2=O)cc1` [Compound 5424, (3Z,6Z)-3-(4-Dimethylaminobenzylidene)-6-(4-(2-dimethylaminoethylthio)benzylidene)-2,5-piperazinedione], the “% Inhibition” value is, setting by setting: (5 μm) 6%; (20 μm) 23%. Moreover, under setting [1], the IC50 turned out to be 13.7 µM.

For `CN(C)CCSc1ccc(/C=c2\[nH]c(=O)/c(=C/c3ccsc3)[nH]c2=O)cc1` [Compound 5133.HCl, (3Z,6Z)-6-(4-(2-Dimethylaminoethylthio)benzylidene)-3-(3-thienylmethylene)-2,5-piperazinedione], the “% Inhibition” value by setting is: (20 μm) 66%; (100 μm) 24%. This compound yielded an IC50 under setting [1] of 3 µM.

With `CN(C)CCSc1ccc(/C=c2\[nH]c(=O)/c(=C/c3ccc4c(c3)OCO4)[nH]c2=O)s1` [Compound 5279.HCl, (3Z,6Z)-3-(5-(2-Dimethylaminoethylthio)-2-thienyl)methylene-6-(3,4-methylenedioxybenzylidene)-2,5-piperazinedione], it took 13 µM to reach half-maximal inhibition under setting [1] (IC50).

With `CN(C)CCSc1ccc(/C=c2\[nH]c(=O)/c(=C/C3CCCCC3)[nH]c2=O)s1` [Compound 5454.HCl, (3Z,6Z)-6-Cyclohexylmethylene-3-(5-(2-dimethylaminoethylthio)-2-thienyl)methylene-2,5-piperazinedione], the “% Inhibition” value runs as follows: (5 μm) 25%; (20 μm) 69%. Under setting [1], the IC50 was 5.3 µM.

`CN(C)CCSc1ccc(/C=c2\[nH]c(=O)/c(=C/c3cccc(Cl)c3)[nH]c2=O)s1` [Compound 5291, (3Z,6Z)-6-(3-Chlorobenzylidene)-3-(5-(2-dimethylaminoethylthio)-2-thienyl)methylene-2,5-piperazinedione] yielded an IC50 under setting [1] of 20 µM.

With `CN(C)CCSc1ccc(/C=c2\[nH]c(=O)/c(=C/c3ccc(OCc4ccccc4)cc3)[nH]c2=O)cc1` [Compound 5481, (3Z,6Z)-3-(4-Benzyloxybenzylidene)-6-(4-(2-dimethylaminoethylthio)benzylidene)-2,5-piperazinedione], the “% Inhibition” value (5 μm) is listed as 9% and the “% Inhibition” value (20 μm) is reported as 56%. The same compound returned an IC50 under setting [1] of 20 µM.

Under setting [1], `CN(C)CCSc1ccc(/C=c2\[nH]c(=O)/c(=C/c3ccc4ccccc4c3)[nH]c2=O)cc1` [Compound 5284, (3Z,6Z)-6-(4-(2-Dimethylaminoethylthio)benzylidene)-3-(2-naphthylmethylene)-2,5-piperazinedione] registered a half-inhibitory concentration (IC50) of 3 µM.

Consider `CN(C)CCSc1ccc(/C=c2\[nH]c(=O)/c(=C/CC(C)(C)C)[nH]c2=O)s1` [Compound 5502, (3Z,6Z)-3-(5-(2-Dimethylaminoethylthio)-2-thienyl)methylene-6-(3,3-dimethyl-1-butylidene)-2,5-piperazinedione], for which the “% Inhibition” value reads like this: (5 μm) 0%; (20 μm) 12%. For the same compound, the 50% inhibitory concentration (IC50) under setting [1] was greater than 20 µM.

As for `CN(C)CCSc1ccc(/C=c2\[nH]c(=O)/c(=C/c3ccccn3)[nH]c2=O)s1` [Compound 5471, (3Z,6Z)-6-(5-(2-Dimethylaminoethylthio)-2-thienyl)methylene-3-(2-pyridylmethylene)-2,5-piperazinedione], the “% Inhibition” value runs as follows: (5 μm) 0%; (20 μm) 1%.

As to `CSc1ccc(/C=c2\[nH]c(=O)/c(=C/c3ccc(SCCN(C)C)cc3)[nH]c2=O)cc1` [Compound 5426.HCl, (3Z,6Z)-3-(4-(2-Dimethylaminoethylthio)benzylidene)-6-(4-methylthiobenzyidene)-2,5-piperazinedione], the “% Inhibition” value came to 35% (5 μm) and 55% (20 μm). This compound also came in with an IC50 under setting [1] of 5.4 µM.

With `CN(C)CCSc1ccc(/C=c2\[nH]c(=O)/c(=C/c3ccc4ccccc4n3)[nH]c2=O)s1` [Compound 5308.HCl, (3Z,6Z)-6-(5-(2-Dimethylaminoethylthio)-2-thienyl)methylene-3-(2-quinolylmethylene)-2,5-piperazinedione], the “% Inhibition” value was 93% (20 μm) and 93% (100 μm). The compound also had an IC50 under setting [1] of 4.5 µM.

Turning to `COc1cccc(/C=c2\[nH]c(=O)/c(=C/c3ccc(SCCN(C)C)s3)[nH]c2=O)c1` [Compound 5314.HCl, (3Z,6Z)-3-(5-(2-Dimethylaminoethylthio)-2-thienyl)methylene-6-(3-methoxybenzylidene)-2,5-piperazinedione], under setting [1], the IC50 is 9.5 µM.

Take `CN(C)CCSc1ccc(/C=c2\[nH]c(=O)/c(=C/c3cccc(Br)c3)[nH]c2=O)cc1` [Compound 5425.HCl, (3Z,6Z)-3-(3-Bromobenzylidene)-6-(4-(2-dimethylaminoethylthio)benzylidene)-2,5-piperazinedione]: the “% Inhibition” value by setting is: (5 μm) 56%; (20 μm) 47%. Also, under setting [1], the IC50 amounted to 2.2 µM.

In the case of `CN(C)CCSc1ccc(/C=c2\[nH]c(=O)/c(=C/c3cccnc3)[nH]c2=O)s1` [Compound 5470, (3Z,6Z)-6-(5-(2-Dimethylaminoethylthio)-2-thienyl)methylene-3-(3-pyridylmethylene)-2,5-piperazinedione], the “% Inhibition” value is 1% (5 μm) and 0% (20 μm).

In the case of `CN(C)CCSc1ccc(/C=c2\[nH]c(=O)/c(=C/c3cccc(Cl)c3)[nH]c2=O)cc1` [Compound 5292.HCl, (3Z,6Z)-3-(3-Chlorobenzylidene)-6-(4-(2-dimethylaminoethylthio)benzylidene)-2,5-piperazinedione], under setting [1], the IC50 stood at 2 µM.

In the case of `CN(C)CCSc1ccc(/C=c2\[nH]c(=O)/c(=C/c3ccc(C(F)(F)F)cc3)[nH]c2=O)cc1` [Compound 5294.HCl, (3Z,6Z)-3-(4-(2-Dimethylaminoethylthio)benzylidene)-6-(4-trifluoromethylbenzylidene)-2,5-piperazinedione], under setting [1], the IC50 was 10 µM.

In the case of `Cc1ccc(/C=c2\[nH]c(=O)/c(=C/c3ccc(SCCN(C)C)s3)[nH]c2=O)cc1` [Compound 5460.HCl, (3Z,6Z)-3-(5-(2-Dimethylaminoethylthio)-2-thienyl)methylene-6-(4-methylbenzylidene)-2,5-piperazinedione], the “% Inhibition” value is given as 31% (5 μm) and 78% (20 μm). For the same compound, half-maximal inhibition under setting [1] (IC50) required 12.6 µM.

With `CN(C)CCSc1sc(/C=c2\[nH]c(=O)/c(=C/c3ccccc3)[nH]c2=O)cc1[N+](=O)[O-]` [Compound 5403.HCl, (3Z,6Z)-6-Benzylidene-3-(5-(2-dimethylaminoethylthio)-4-nitro-2-thienyl)methylene-2,5-piperazinedione], the “% Inhibition” value is, setting by setting: (5 μm) 12%; (20 μm) 60%.

The compound `CN(C)CCSc1ccc(/C=c2\[nH]c(=O)/c(=C/c3ccc4c(c3)OCO4)[nH]c2=O)s1` [Compound 5279, (3Z,6Z)-3-(5-(2-Dimethylaminoethylthio)-2-thienyl)methylene-6-(3,4-methylenedioxybenzylidene)-2,5-piperazinedione] registered an IC50 of 20 µM. In addition, for the setting “20 μm”, the “% Inhibition” value was found to be 64%. The “% Inhibition” value (100 μm) stood at 68%.

For `CN(C)CCSc1ccc(/C=c2\[nH]c(=O)/c(=C/c3ccc(Br)cc3)[nH]c2=O)cc1` [Compound 5480, (3Z,6Z)-3-(4-Bromobenzylidene)-6-(4-(2-dimethylaminoethylthio)benzylidene)-2,5-piperazinedione], the “% Inhibition” value (5 μm) was 53% and the “% Inhibition” value (20 μm) was found to be 74%. Under setting [1], this compound had an IC50 of 5.2 µM.

As for `COc1cc(/C=c2\[nH]c(=O)/c(=C/c3ccc(SCCN(C)C)cc3)[nH]c2=O)ccc1OCc1ccc([N+](=O)[O-])cc1` [Compound 5490, (3Z,6Z)-6-(4-(2-Dimethylaminoethylthio)benzylidene)-3-(3-methoxy-4-(4-nitrobenzyloxy)benzylidene)-2,5-piperazinedione], the “% Inhibition” value (5 μm) was 6% and the “% Inhibition” value (20 μm) is listed as 48%. The compound further showed an IC50 under setting [1] of 20 µM.
